Reference: ChEMBL document CHEMBL1134026, “Synthesis and evaluation of novel amidate prodrugs of PMEA and PMPA” (Bioorg Med Chem Lett, 2001)
Values belong to the compound of their own block, whether it stands above or below them.

What was measured:
CCRF-CEM [1] = test: In vitro antiviral activity against HIV-2 in CEM cells; format: functional, cell-based; settings: Homo sapiens
MT4 [2] = test: In vitro antiviral activity against HIV-1 in MT-4 cells; format: functional, cell-based; settings: Homo sapiens
MT4 [3] = test: In vitro antiviral activity against HIV-2 in MT-4 cells; format: functional, cell-based; settings: Homo sapiens
[4] = In vitro cytotoxic concentration against MT-4 cells; format: cell-based, MT4; settings: human
CCRF-CEM [5] = test: In vitro antiviral activity against HIV-1 in CEM cells; format: functional, cell-based; settings: Homo sapiens
[6] = In vitro cytotoxic concentration against CEM cells; format: cell-based, CCRF-CEM; settings: human

SMILES: COC(=O)[C@@H](Cc1ccccc1)NP(=O)(CO[C@H](C)Cn1cnc2c(N)ncnc21)Oc1ccc(Cl)cc1 (stereo partly specified)
EC50 (CCRF-CEM [1]): 0.06 µM
EC50 (MT4 [2]): 0.04 µM
EC50 (MT4 [3]): 0.07 µM
CC50 [4]: 64 µM
EC50 (CCRF-CEM [5]): 0.07 µM
CC50 [6]: 26 µM

SMILES: COC(=O)[C@H](C)NP(=O)(CO[C@H](C)Cn1cnc2c(N)ncnc21)Oc1ccccc1 (stereo partly specified)
EC50 (CCRF-CEM [1]): 0.38 µM
EC50 (MT4 [2]): 0.99 µM
EC50 (MT4 [3]): 0.65 µM
CC50 [4]: 213 µM
EC50 (CCRF-CEM [5]): 0.5 µM
CC50 [6]: 125 µM

SMILES: COC(=O)CNP(=O)(CO[C@H](C)Cn1cnc2c(N)ncnc21)Oc1ccccc1 (stereo partly specified)
EC50 (CCRF-CEM [1]): 0.31 µM
EC50 (MT4 [2]): 0.58 µM
EC50 (MT4 [3]): 0.15 µM
CC50 [4]: 102 µM
EC50 (CCRF-CEM [5]): 0.23 µM
CC50 [6]: 88.5 µM

SMILES: COC(=O)[C@@H](C)NP(=O)(CO[C@H](C)Cn1cnc2c(N)ncnc21)Oc1ccccc1 (stereo partly specified)
EC50 (CCRF-CEM [1]): 0.09 µM
EC50 (MT4 [2]): 0.029 µM
EC50 (MT4 [3]): 0.026 µM
CC50 [4]: 71.4 µM
EC50 (CCRF-CEM [5]): 0.053 µM
CC50 [6]: 27 µM

SMILES: COC(=O)[C@H](C)NP(=O)(COCCn1cnc2c(N)ncnc21)Oc1ccccc1 (stereo partly specified)
EC50 (CCRF-CEM [1]): 6 µM
EC50 (MT4 [2]): 15 µM
EC50 (MT4 [3]): 7.2 µM
CC50 [4]: 120 µM
EC50 (CCRF-CEM [5]): 5 µM
CC50 [6]: 67 µM

SMILES: C[C@H](Cn1cnc2c(N)ncnc21)OCP(=O)(Oc1ccccc1)Oc1ccccc1
EC50 (CCRF-CEM [1]): 4 µM
EC50 (MT4 [2]): 6.2 µM
EC50 (MT4 [3]): 4.9 µM
CC50 [4]: > 250 µM
EC50 (CCRF-CEM [5]): 4 µM
CC50 [6]: > 250 µM

SMILES: COC(=O)[C@@H](C)NP(=O)(CO[C@H](C)Cn1cnc2c(N)ncnc21)Oc1ccc(Cl)cc1 (stereo partly specified)
EC50 (CCRF-CEM [1]): 0.12 µM
EC50 (MT4 [2]): 0.15 µM
EC50 (MT4 [3]): 0.26 µM
CC50 [4]: 57 µM
EC50 (CCRF-CEM [5]): 0.2 µM
CC50 [6]: 106 µM

SMILES: COC(=O)[C@@H](C)NP(=O)(COCCn1cnc2c(N)ncnc21)Oc1ccccc1 (stereo partly specified)
EC50 (CCRF-CEM [1]): 0.2 µM
EC50 (MT4 [2]): 0.23 µM
EC50 (MT4 [3]): 0.15 µM
CC50 [4]: 5.1 µM
EC50 (CCRF-CEM [5]): 0.12 µM
CC50 [6]: 3.7 µM

EC50 (CCRF-CEM [1]): 3.67 µM
EC50 (CCRF-CEM [5]): 3.67 µM
SMILES: C[C@H](Cn1cnc2c(N)ncnc21)OCP(=O)(O)O [TENOFOVIR ANHYDROUS]
EC50 (MT4 [2]): 2.3 µM
EC50 (MT4 [3]): 1.4 µM
CC50 [4]: 197 µM
CC50 [6]: > 250 µM

SMILES: Nc1ncnc2c1ncn2CCOCP(=O)(O)O [ADEFOVIR]
EC50 (CCRF-CEM [1]): 10 µM
EC50 (MT4 [2]): 7 µM
EC50 (MT4 [3]): 7.5 µM
CC50 [4]: 144 µM
EC50 (CCRF-CEM [5]): 7 µM
CC50 [6]: 69 µM

SMILES: COC(=O)CNP(=O)(COCCn1cnc2c(N)ncnc21)Oc1ccccc1 (stereo unspecified)
EC50 (CCRF-CEM [1]): 4.5 µM
EC50 (MT4 [2]): 3.6 µM
EC50 (MT4 [3]): 4.8 µM
CC50 [4]: 120 µM
EC50 (CCRF-CEM [5]): 5.6 µM
CC50 [6]: 80 µM
